Experimental data from PubChem BioAssay (NCI).
Several values for one entry are separate records, joined by “and”; a condition that tells them apart may be missing. Equal values may be shown once.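 The compound was tested at five concentrations on cells cultured in 96-well plates, with a 48-hour exposure period. At the GI50, growth is halved. TGI denotes the concentration required for complete inhibition of growth.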

What was measured:
Experiment in all cases: growth of human tumour cells (NCI), 48 h
K-562 leukemia = tested on: K-562 leukemia
SK-MEL-2 melanoma = tested on: SK-MEL-2 melanoma
A549 NSCLC = tested on: A549 NSCLC
MDA-MB-435 = tested on: MDA-MB-435
IGROV1 ovarian = tested on: IGROV1 ovarian
HCT-116 colon = tested on: HCT-116 colon
HOP-62 NSCLC = tested on: HOP-62 NSCLC
SF-539 CNS = tested on: SF-539 CNS
DMS 114 small cell lung = tested on: DMS 114 small cell lung
KM20L2 colon = tested on: KM20L2 colon
SNB-78 CNS = tested on: SNB-78 CNS

Row | SMILES | GI50 (K-562 leukemia) | TGI (K-562 leukemia) | GI50 (SK-MEL-2 melanoma) | TGI (SK-MEL-2 melanoma) | GI50 (A549 NSCLC) | TGI (A549 NSCLC) | GI50 (MDA-MB-435) | TGI (MDA-MB-435) | GI50 (IGROV1 ovarian) | TGI (IGROV1 ovarian) | GI50 (HCT-116 colon) | TGI (HCT-116 colon) | GI50 (HOP-62 NSCLC) | TGI (HOP-62 NSCLC) | GI50 (SF-539 CNS) | TGI (SF-539 CNS) | TGI (DMS 114 small cell lung) | TGI (KM20L2 colon) | TGI (SNB-78 CNS)
1 | O=C(Nc1cccc2cccnc12)c1ccc(N2C(=O)[C@@H]3[C@H](C2=O)[C@@H]2C=C[C@H]3C2)cc1 | 24.5 µM | > 100 µM | 27 µM | 80.1 µM | 26.2 µM | > 100 µM | 32.1 µM | > 100 µM | 32.7 µM | > 100 µM | 35.8 µM | > 100 µM | 36.7 µM | > 100 µM | 77.8 µM | > 100 µM | – | – | –
2 | COc1ccc2[nH]c(-c3cccc(N(C)C)c3)cc(=O)c2c1 | 0.321 µM | 17.3 µM | 0.786 µM | – | 4.46 µM | > 100 µM | 0.0444 µM | 0.213 µM and 0.202 µM | – | > 100 µM | 0.56 µM | – | 0.335 µM and 0.844 µM | 94.2 µM | 0.391 µM | – | – | – | –
3 | CS(=O)c1ccc(-c2nc(-c3ccc(F)cc3)c(-c3ccncc3)[nH]2)cc1 (stereo unspecified) | 25 µM | > 100 µM | 23 µM | 49.4 µM | 35 µM | > 100 µM | 20.7 µM | > 100 µM | 21.9 µM | > 85.5 µM | 20.1 µM | > 63.8 µM | > 100 µM | > 100 µM | 44.8 µM | > 100 µM | – | – | –
4 | O=C(N=Nc1c(O)[nH]c2c(Cl)cc(Cl)cc12)c1ccncc1 | – | 99.5 µM | – | 40.2 µM | – | > 100 µM | – | 33.7 µM | – | > 100 µM | – | 39.2 µM | – | 88.3 µM | – | 51.1 µM | – | – | –
5 | COc1ccc(/C=C/c2nc(=S)[nH][nH]2)cc1 | – | > 100 µM | – | > 100 µM | – | > 100 µM | – | – | – | > 100 µM | – | > 100 µM | – | – | – | > 100 µM | > 100 µM | > 100 µM | > 100 µM
6 | O=C(c1ccco1)c1c(C(F)(F)F)nc2cc(C(F)(F)F)ccc2[n+]1[O-] | 38.3 µM | > 100 µM | 69.3 µM | > 100 µM | 48.4 µM | > 100 µM | > 100 µM | > 100 µM | 26.5 µM | 90.6 µM | 33.4 µM | > 100 µM | 22.9 µM | > 100 µM | 21.2 µM | 54.2 µM | – | – | –
7 | CCOC(=O)c1c(C)n(CC(C)C)c2c1cc1oc(=O)c(=O)n3cnc2c13 | 16.1 µM | > 50 µM | 38.7 µM | > 50 µM | 15.7 µM | > 50 µM | 9.07 µM | 16.8 µM | 15.1 µM | > 50 µM | 14.8 µM | > 50 µM | 35 µM | > 50 µM | 15.6 µM | 42 µM | – | – | –
8 | C=C1C(=O)O[C@H]2[C@H]1[C@H](OC(=O)/C(C)=C\C)C[C@]1(CO1)[C@@H]1[C@H](OC(C)=O)C=C(C)[C@]21O | – | 11.8 µM | – | > 58.3 µM | – | > 100 µM | – | 42.4 µM | – | 38.8 µM | – | 20.3 µM | – | > 100 µM | – | > 93.9 µM | – | – | –
